The structures appear in SMILES notation.

We go through one compound from patent publication US20190117653A1, “SYSTEMS AND METHODS FOR TREATING BACTERIAL INFECTION” (priority 2016, published 2019).

Data set [1] relates to methicillin-resistant Staphylococcus aureus (MRSA) isolates nonsusceptible to daptomycin, linezolid or vancomycin. The experiment in a line: broth microdilution susceptibility of MRSA nonsusceptible to daptomycin, linezolid or vancomycin. In kind it is cell-based. Here is the method: Antibacterial susceptibility testing was conducted on a range of MRSA strains and isolates with varying susceptibilities to several recognized antistaphylococcal antibiotics. Susceptibility testing was performed by broth microdilution in accordance with the Clinical and Laboratory and Standards Institute (CLSI) guidelines. Minimum inhibitory concentrations (MICs) were based on CLSI criteria.

The subject of data set [2] is nosocomial pneumonia suspected or confirmed to be caused by Gram-positive pathogens. In words: Phase 2 study in nosocomial pneumonia, iclaprim versus vancomycin. It is filed as in vivo, human. An excerpt: This MIC effect of surfactant on daptomycin activity has been reported to be mediated by binding of surfactant components to specific structures present on antibiotics, such as the lipophilic side-chain of daptomycin (Silverman et al., 2005). […] Collectively, the current in vitro study and a previous Phase 2 study support that iclaprim could be a potential treatment for pneumonia, including nosocomial pneumonia caused by susceptible and multidrug resistant Gram-positive bacteria.

The target of the next data set is L-type calcium channel (Homo sapiens, UniProt Q13936). In words: L-type calcium channel inhibition. It is filed as cell-based.
Data set [3] can be described thus: exposure to iclaprim in Phase I studies. As to conditions: human, in vivo.
Data set [4] can be described thus: 13-week toxicology study in the marmoset, AUC at NOAEL. In kind it is in vivo. Particulars: marmoset females.
In data set [5] the test system is common Gram-positive and Gram-negative respiratory bacteria. The experiment in a line: pulmonary surfactant interaction, overall effect of BPS on MIC and MICRZ. It is filed as cell-based. Particulars: 2.5% (v/v) BPS; all tested strains or isolates. Here is the method: Antibacterial susceptibility testing was measured by JMI Labs (North Liberty, Iowa, USA). […] These clinical isolates were collected from US (n=4), Mexico (n=2), and Italy (n=1). Susceptibility testing was performed by broth microdilution in accordance with the Clinical and Laboratory and Standards Institute (CLSI) guidelines M07-A10 (2015) and the standard operating procedures at JMI laboratories. Minimum inhibitory concentrations (MICS) were based on CLSI criteria (2015). There are no published breakpoints for iclaprim. E. coli, K. pneumoniae, M. catarrhalis, E. faecalis, and S. aureus were tested in cation-adjusted Mueller-Hinton broth (CA-MHB). […]
Because bovine pulmonary surfactant can introduce cloudiness to the MIC testing media, antimicrobial growth inhibition was also evaluated using the colorimetric metabolic indicator resazurin (Camlab Ltd., Cambridge, UK). […] Growth inhibition was then evaluated as a visible color change from blue (no growth) to pink (robust growth) and recorded as a MIC1z value.
The MICs of iclaprim, levofloxacin, and daptomycin were determined against Gram-positive and Gram-negative isolates.
A new vial of bovine pulmonary surfactant (BPS; Survanta®; Abbott Laboratories, Columbus, Ohio) was utilized for each independent experiment. […] MICs of daptomycin were determined in CAMHB with the Ca^2+ content adjusted to 50 mg/L.

Data set [6] in a line: PK of IV iclaprim in moderate hepatic impairment. It is filed as in vivo, human. Particulars: moderate hepatic impairment (Child-Pugh grade B). Here is the method: For example, the PK profile of 0.8 mg/kg iclaprim administered by IV was investigated in 8 subjects with mild to moderate obesity (body mass index or “BMI” 30-40) and in 8 subjects with severe obesity (BMI>40). […] Linear regression analysis indicated a strong linear relationship between AUC (and Cmax) and BMI. Thus it was clear that the body composition of the subject affected the pharmacokinetics of IV administered iclaprim, with a greater percentage of body fat causing an increase in AUC and Cmax. […] Thus there is a risk of overdosing subjects with moderate hepatic impairment, which can be mitigated by reducing the IV iclaprim dose by about 50%.

Chain of L-type calcium channel (Q13936 whole entry): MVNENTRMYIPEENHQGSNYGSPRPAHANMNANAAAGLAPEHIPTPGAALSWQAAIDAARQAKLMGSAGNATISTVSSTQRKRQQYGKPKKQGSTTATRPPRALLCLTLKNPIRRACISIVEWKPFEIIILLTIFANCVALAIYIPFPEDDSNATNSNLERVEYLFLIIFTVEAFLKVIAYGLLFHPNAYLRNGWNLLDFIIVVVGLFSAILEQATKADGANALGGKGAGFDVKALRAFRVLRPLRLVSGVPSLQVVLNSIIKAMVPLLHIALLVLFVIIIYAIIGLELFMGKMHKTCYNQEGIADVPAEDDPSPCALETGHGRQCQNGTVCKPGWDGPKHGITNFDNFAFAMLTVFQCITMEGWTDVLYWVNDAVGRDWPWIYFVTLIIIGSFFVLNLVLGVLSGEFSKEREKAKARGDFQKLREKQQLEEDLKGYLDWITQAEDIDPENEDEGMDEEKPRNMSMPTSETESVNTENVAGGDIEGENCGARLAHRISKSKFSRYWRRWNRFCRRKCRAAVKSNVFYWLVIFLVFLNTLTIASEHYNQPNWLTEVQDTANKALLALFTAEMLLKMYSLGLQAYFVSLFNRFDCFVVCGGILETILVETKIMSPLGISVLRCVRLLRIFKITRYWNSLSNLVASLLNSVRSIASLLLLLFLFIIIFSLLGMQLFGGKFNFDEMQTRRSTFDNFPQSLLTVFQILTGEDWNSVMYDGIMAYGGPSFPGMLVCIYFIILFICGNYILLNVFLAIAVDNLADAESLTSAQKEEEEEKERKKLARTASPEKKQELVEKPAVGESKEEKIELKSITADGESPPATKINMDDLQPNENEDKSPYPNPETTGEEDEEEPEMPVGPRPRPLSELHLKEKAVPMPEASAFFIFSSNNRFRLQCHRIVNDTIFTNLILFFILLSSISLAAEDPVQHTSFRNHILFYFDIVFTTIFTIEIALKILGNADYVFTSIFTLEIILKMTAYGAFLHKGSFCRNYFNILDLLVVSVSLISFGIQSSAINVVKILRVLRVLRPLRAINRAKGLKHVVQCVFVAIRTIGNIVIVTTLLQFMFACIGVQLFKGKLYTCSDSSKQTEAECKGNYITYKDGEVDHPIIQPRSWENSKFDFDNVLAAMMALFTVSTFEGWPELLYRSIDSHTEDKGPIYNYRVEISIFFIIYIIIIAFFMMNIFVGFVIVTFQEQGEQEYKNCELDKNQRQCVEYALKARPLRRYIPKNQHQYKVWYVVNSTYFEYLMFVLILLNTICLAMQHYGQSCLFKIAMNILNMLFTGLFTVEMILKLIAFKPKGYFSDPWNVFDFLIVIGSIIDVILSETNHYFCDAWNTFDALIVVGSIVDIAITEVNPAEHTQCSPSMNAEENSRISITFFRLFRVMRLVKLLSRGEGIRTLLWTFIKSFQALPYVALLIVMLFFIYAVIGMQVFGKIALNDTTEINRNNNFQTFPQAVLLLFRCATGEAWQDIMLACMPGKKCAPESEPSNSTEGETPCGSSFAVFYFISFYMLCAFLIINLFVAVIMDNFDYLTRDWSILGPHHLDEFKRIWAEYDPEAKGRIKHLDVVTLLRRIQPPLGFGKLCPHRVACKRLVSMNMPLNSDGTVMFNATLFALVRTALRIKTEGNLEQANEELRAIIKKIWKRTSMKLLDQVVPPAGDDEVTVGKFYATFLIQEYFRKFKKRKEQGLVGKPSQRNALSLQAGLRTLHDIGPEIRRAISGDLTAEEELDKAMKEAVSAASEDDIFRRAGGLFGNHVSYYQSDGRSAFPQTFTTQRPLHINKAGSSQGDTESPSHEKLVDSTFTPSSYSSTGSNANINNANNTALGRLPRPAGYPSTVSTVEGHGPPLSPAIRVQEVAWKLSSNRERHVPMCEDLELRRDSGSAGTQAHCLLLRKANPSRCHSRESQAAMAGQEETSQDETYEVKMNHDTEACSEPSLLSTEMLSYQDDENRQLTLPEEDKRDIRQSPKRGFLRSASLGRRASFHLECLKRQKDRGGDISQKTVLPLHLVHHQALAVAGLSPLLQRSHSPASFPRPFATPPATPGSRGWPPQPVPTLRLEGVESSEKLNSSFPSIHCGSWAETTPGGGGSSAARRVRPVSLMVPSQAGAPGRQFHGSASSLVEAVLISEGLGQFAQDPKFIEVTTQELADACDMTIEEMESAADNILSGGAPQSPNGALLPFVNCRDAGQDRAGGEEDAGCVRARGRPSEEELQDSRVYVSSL

Turning to `COc1cc(Cc2cnc(N)nc2N)c2c(c1OC)OC(C1CC1)C=C2` (racemic) [Iclaprim], the entries for the “isolates with MIC≤1 μg/ml” value in data set [1] (MRSA nonsusceptible to daptomycin (5 of 7)), in data set [1] (MRSA nonsusceptible to linezolid (25 of 25)) and in data set [1] (MRSA nonsusceptible to vancomycin (18 of 27)) were 71.4%, 100% and 66.7%, respectively. Besides, the “cure rate, intent-to-treat population” value in data set [2] (iclaprim 0.8 mg/kg IV q12h, test of cure visit (17 of 23)) amounted to 73.9%; in data set [2] (iclaprim 1.6 mg/kg IV q8h, test of cure visit (15 of 24)), 62.5%. The “death rate within 28 days of the start of treatment” value in data set [2] (iclaprim q8h (3 of 24)) is recorded as 12.5%; in data set [2] (iclaprim q12h (2 of 23)), 8.7%. For the same compound, at L-type calcium channel, the IC50 worked out at 46 µM. Also, the AUC in data set [3] (1 mg/kg) was 2,575 ± 757 hr × ng/mL; in data set [3] (4 mg/kg), 8,894 [29.0] hr × ng/mL. Besides, in data set [3] (4 mg/kg), the Cmax is 2,851 [19.2] ng/mL. For the same compound, the “AUC achieved at the NOAEL” value in data set [4] is recorded as 26,600 hr×ng/mL. In data set [5], the “effect of BPS on MIC and MICRZ values” is reported as “minimal or no effect”. Further, the “increase in AUC” value in data set [6] is reported as 2.5 fold. In addition, in data set [6], the “increase in Cmax” value was 1.4 fold.
